Experimental data published in patent US10136647B2, “Synergistic Bacillus thuringiensis subsp. kurstaki and chlorantraniliprole mixtures for diamondback moth, beet armyworm, sugarcane borer, soybean looper and corn earworm control” (priority 2015, dated 2018).
Where two headings read alike, the source gives them in different places.

Tests used:
[1] = test system: diamondback moth larvae; test: Laboratory leaf dip test on diamondback moth larvae; format: in vivo; conditions: Plutella xylostella, foliar, 24 h after treatment, Btk 0.54 ppm, chlorantraniliprole 0.0009 ppm, read-out: % Efficacy
Description: The following examples illustrate the synergy of Bacillus thuringiensis subsp. kurstaki and chlorantraniliprole when controlling diamondback moth, beet armyworm, sugarcane borer, soybean looper, and corn earworm. DiPel® DF was used as the source of Bacillus thuringiensis subsp. kurstaki and Coragen® was used as the source of chlorantraniliprole. The present invention is not limited to the products or formulation types used herein. In each example below, the studies were conducted as follows.
For these tests, standardized laboratory leaf dip methods were used to inoculate plant material with treatment(s). Dry, treated leaves were placed into Petri dishes (100×25 mm) containing filter paper wetted with 500 μl of distilled H2O (“dH2O”). […] Synergy ratings were calculated for each test. […]
% Cexp=A+B−(AB/100), where % Cexp is the expected efficacy and “in which A and B are the control levels given by the single [insecticides]. […] Adopting a conservative approach, Applicant determined synergy to be present at ratios of >1.15. […]
In order to determine synergy, rates below normal field rate ranges must be used. If normal field rate ranges are used, all of the larvae would die (combining a lethal or near lethal dose of Bacillus thuringiensis subsp. kurstaki with a lethal dose of chlorantraniliprole would most likely lead to larvae death) in every treatment and synergy would not be able to be determined. […]

[2] = test system: beet armyworm larvae; test: Laboratory leaf dip test on beet armyworm larvae; format: in vivo; conditions: Spodoptera exigua, foliar, Btk 0.54 ppm, chlorantraniliprole 0.0009 ppm, read-out: % Efficacy
Description: (§1) DiPel® DF was used as the source of Bacillus thuringiensis subsp. kurstaki and Coragen® was used as the source of chlorantraniliprole. The present invention is not limited to the products or formulation types used herein. In each example below, the studies were conducted as follows.
(§2) For these tests, standardized laboratory leaf dip methods were used to inoculate plant material with treatment(s). Dry, treated leaves were placed into Petri dishes (100×25 mm) containing filter paper wetted with 500 μl of distilled H2O (“dH2O”). Each dish was then infested with between 5 and 10 larvae, dependent on species. Efficacy ratings were taken at specified intervals. Synergy ratings were calculated for each test.
(§3) % Cexp=A+B−(AB/100), where % Cexp is the expected efficacy and “in which A and B are the control levels given by the single [insecticides]. If the ratio between the experimentally observed efficacy of the mixture Cobs and the expected efficacy of the mixture is greater than 1, synergistic interactions are present in the mixture.” (Gisi, Synergisitic Interaction of Fungicides in Mixtures, The American Phytopathological Society, 86:11, 1273-1279,1996). Adopting a conservative approach, Applicant determined synergy to be present at ratios of >1.15.

[3] = test system: cabbage looper larvae; test: Laboratory leaf dip test on cabbage looper larvae; format: in vivo; conditions: Trichoplusia ni, foliar, Btk 0.54 ppm, chlorantraniliprole 0.0009 ppm, read-out: % Efficacy
Description: as §1, §2, §3

[4] = test system: sugarcane borer larvae; test: Laboratory leaf dip test on sugarcane borer larvae; format: in vivo; conditions: Diatraea saccharalis, foliar, Btk 0.54 ppm, chlorantraniliprole 0.0009 ppm, read-out: % Efficacy
Description: as §1, §2, §3

[5] = test system: southwestern corn borer larvae; test: Laboratory leaf dip test on southwestern corn borer larvae; format: in vivo; conditions: foliar, 72 h after treatment, Btk 0.54 ppm, chlorantraniliprole 0.0009 ppm, read-out: % Efficacy
Description: as §1, §2, §3

[6] = test system: soybean looper larvae; test: Laboratory leaf dip test on soybean looper larvae; format: in vivo, Chrysodeixis includens; conditions: foliar, Btk 0.54 ppm, chlorantraniliprole 0.045 μg/ml, read-out: % Efficacy
Description: as §1, §2, §3
In this study, the response of soybean looper larvae to Bacillus thuringiensis subsp. kurstaki and chlorantraniliprole was observed.
For this species, the same ppm of Bacillus thuringiensis subsp. kurstaki was used, but 0.045 μg/ml was used for chlorantraniliprole.

[7] = test system: corn earworm larvae; test: Laboratory leaf dip test on corn earworm larvae; format: in vivo; conditions: Helicoverpa zea, foliar, Btk 0.54 ppm, chlorantraniliprole 0.0009 ppm, read-out: % Efficacy
Description: as §1, §2, §3

CNC(=O)c1cc(Cl)cc(C)c1NC(=O)c1cc(Br)nn1-c1ncccc1Cl [Chlorantraniliprole]
Emax at 0.0009 ppm [1]: 12% | Emax at 0.0009 ppm ([2]; 24 h after treatment): 7% | Emax at 0.0009 ppm ([2]; 48 h after treatment): 17% | Emax at 0.0009 ppm ([2]; 72 h after treatment): 30% | Emax at 0.0009 ppm ([3]; 24 h after treatment): 46% | Emax at 0.0009 ppm ([3]; 48 h after treatment): 46% | Emax at 0.0009 ppm ([4]; 24 h after treatment): 10% | Emax at 0.0009 ppm ([4]; 48 h after treatment): 10% | Emax at 0.0009 ppm ([4]; 72 h after treatment): 19% | Emax at 0.0009 ppm [5]: 31% | Emax at 0.045 µg/mL ([6]; 24 h after treatment): 7% | Emax at 0.045 µg/mL ([6]; 48 h after treatment): 10% | Emax at 0.045 µg/mL ([6]; 72 h after treatment): 17% | Emax at 0.0009 ppm ([7]; 24 h after treatment): 7% | Emax at 0.0009 ppm ([7]; 48 h after treatment): 20% | Emax at 0.0009 ppm ([7]; 72 h after treatment): 20%
